The subject of experiment [1] is Klebsiella pneumoniae strain ATCC13883. Kind of experiment: Antimicrobial activity, MIC by broth microdilution. Type of experiment: cell-based. The conditions noted are these: read-out: MIC Klebsiella pneumoniae ATCC13883. In short, it runs like this:
(§1)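 MIC read by eye as the lowest drug level lacking visible growth after roughly 18 h at 35° C. Cells from heart infusion agar, set to McFarland 0.5 and diluted, were inoculated at about 5×10^5 CFU/mL into cation-adjusted Mueller-Hinton broth with compound, per adapted CLSI microdilution.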
On the technique in general: Broth dilution looks for growth in wells or tubes with falling amounts of substance.

Experiment [2] deals with Escherichia coli strain ATCC25922. Kind of experiment: Antimicrobial activity, MIC by broth microdilution. The conditions noted are these: ATCC25922, 18 h, read-out: MIC Escherichia coli ATCC25922. In kind it is cell-based. In short, it runs like this:
as §1

Experiment [3] relates to Pseudomonas aeruginosa strain ATCC27853. Kind of experiment: Antimicrobial activity, MIC by broth microdilution. Type of experiment: cell-based. The conditions noted are these: ATCC27853, 18 h, read-out: MIC Pseudomonas aeruginosa ATCC27853. In outline:
as §1

Experiment [4] addresses T1, Escherichia coli LpxC enzyme (Escherichia coli, UniProt P0A725).
T1 construct: made in house; host or cells: Escherichia coli
T1 sequence (P0A725 1-305): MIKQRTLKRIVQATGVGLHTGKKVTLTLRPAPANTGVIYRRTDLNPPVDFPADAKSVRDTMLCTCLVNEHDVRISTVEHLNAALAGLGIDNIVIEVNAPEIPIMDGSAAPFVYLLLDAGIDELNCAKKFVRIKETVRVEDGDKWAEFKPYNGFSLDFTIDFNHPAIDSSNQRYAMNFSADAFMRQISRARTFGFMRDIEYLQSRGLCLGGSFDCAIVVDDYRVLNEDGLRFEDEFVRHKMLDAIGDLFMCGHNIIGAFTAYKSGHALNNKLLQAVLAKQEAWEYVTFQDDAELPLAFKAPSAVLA
Nature of the experiment: Inhibitory activity on Escherichia coli LpxC enzyme (fluorescamine method). Type of experiment: biochemical. The method, then: To assay the activity of Escherichia coli LpxC enzyme, LpxC was reacted with its substrate, UDP-3-O-(R-3-hydroxymyristoyl)-N-acetylglucosamine, and the amount of the reaction product was quantified by the amino groups present in the product
The reaction was terminated by the addition of 1.0 mg/mL-fluorescamine dissolved in a solvent obtained by mixing an equal amount of acetonitrile and dimethylformamide with the reaction mixture, and then, a 0.2 mol/L-sodium phosphate buffer solution (pH 8.0) was added thereto, and the amount of the reaction product was detected at an excitation wavelength/fluorescence wavelength=390 nm/495 nm. An inhibition curve was obtained by performing the aforementioned reaction in the presence of various concentrations of test compounds.

Setting [5] is: ATCC13883, cation-adjusted Mueller-Hinton broth, about 5×10^5 CFU/mL, 35° C., about 18 hours.
Where [6] appears, read: cation-adjusted Mueller-Hinton broth, about 5×10^5 CFU/mL, 35° C., about 18 hours.
The mark [7] stands for this setting: fluorescamine detection, 3.1 nmol/L enzyme, 20 μmol/L substrate, pH 6.5, 120 min, read-out: IC50 (inhibitory activity on Escherichia coli LpxC enzyme, Fluoresamine method).

Converted amounts (≈) assume the structure as drawn. Like-named read-outs stand apart in the source and are kept apart here.

For orientation: MIC means the lowest concentration found to suppress growth. The term IC50 denotes the concentration that inhibits the measured activity by half. As to `C[C@H](O)c1nccn1Cc1cc(-c2ccc(C#CC3CN(C(=O)OC(C)(C)C)C3)cc2)on1` [Compound 68, tert-butyl 3-({4-[3-({2-[(1S)-1-hydroxyethyl]-1H-imidazol-1-yl}methyl)-1,2-oxazol-5-yl]phenyl}ethynyl)azetidine-1-carboxylate], the results for the MIC in experiment [1] (setting [5]), in experiment [2] (setting [6]) and in experiment [3] (setting [6]) were 4 µg/mL (≈ 8.92 µM), 2 µg/mL (≈ 4.46 µM) and 32 µg/mL (≈ 71.3 µM), respectively. For the same compound, the IC50 in experiment [4] (setting [7]) came to 13.6 nM.
For `CC(=O)N1CC(C#Cc2ccc(-c3cc(Cn4ccnc4[C@H](C)O)no3)cc2)C1` [Compound 69, 1-[3-({4-[3-({2-[(1S)-1-hydroxyethyl]-1H-imidazol-1-yl}methyl)-1,2-oxazol-5-yl]phenyl}ethynyl)azetidin-1-yl]ethan-1-one], the MIC in experiment [1] (setting [5]) was determined as 8 µg/mL (≈ 20.5 µM); in experiment [2] (setting [6]), 4 µg/mL (≈ 10.2 µM); in experiment [3] (setting [6]) it was 64 µg/mL (≈ 164 µM). Moreover, the IC50 in experiment [4] (setting [7]) amounted to 54.2 nM.
As for `C[C@H](O)c1nccn1Cc1cc(-c2ccc(C#C[C@@H]3[C@H]4CN(C(N)=O)C[C@@H]34)cc2)on1` [Compound 71, (1R,5S,6s)-6-({4-[3-({2-[(1S)-1-Hydroxyethyl]-1H-imidazol-1-yl}methyl)-1,2-oxazol-5-yl]phenyl}ethynyl)-3-azabicyclo[3.1.0]hexane-3-carboxamide], the figures for the MIC in experiment [1] (setting [5]), in experiment [2] (setting [6]) and in experiment [3] (setting [6]) were 2 µg/mL (≈ 4.79 µM), 1 µg/mL (≈ 2.4 µM) and greater than 16 µg/mL, respectively. Besides, in experiment [4] (setting [7]), the IC50 amounted to 29 nM.
On to `C[C@H](O)c1nccn1Cc1cc(-c2ccc(C#C[C@@H]3[C@H]4CN(S(C)(=O)=O)C[C@@H]34)cc2)on1` [Compound 72, (1S)-1-(1-{[5-(4-{[(1R,5S,6s)-3-(Methanesulfonyl)-3-azabicyclo[3.1.0]hexan-6-yl]ethynyl}phenyl)-1,2-oxazol-3-yl]methyl}-1H-imidazol-2-yl)ethan-1-ol], for which the results for the MIC in experiment [1] (setting [5]), in experiment [2] (setting [6]) and in experiment [3] (setting [6]) were 1 µg/mL (≈ 2.21 µM), 0.5 µg/mL (≈ 1.1 µM) and greater than 16 µg/mL, respectively. Further, the IC50 in experiment [4] (setting [7]) was found to be 112 nM.
For the compound `C[C@H](O)c1nccn1Cc1cc(-c2ccc(C#C[C@@H]3[C@H]4CN(C=O)C[C@@H]34)cc2)on1` [Compound 73, (1R,5S,6s)-6-({4-[3-({2-[(1S)-1-Hydroxyethyl]-1H-imidazol-1-yl}methyl)-1,2-oxazol-5-yl]phenyl}ethynyl)-3-azabicyclo[3.1.0]hexane-3-carbaldehyde], the MIC in experiment [1] (setting [5]) was 2 µg/mL (≈ 4.97 µM); in experiment [2] (setting [6]) it was 1 µg/mL (≈ 2.48 µM); in experiment [3] (setting [6]) it was 64 µg/mL (≈ 159 µM). In addition, the IC50 in experiment [4] (setting [7]) was determined as 38.5 nM.
As to `COCC(=O)N1C[C@@H]2[C@@H](C#Cc3ccc(-c4cc(Cn5ccnc5[C@H](C)O)no4)cc3)[C@@H]2C1` [Compound 76, 1-[(1R,5S,6s)-6-({4-[3-({2-[(1S)-1-Hydroxyethyl]-1H-imidazol-1-yl}methyl)-1,2-oxazol-5-yl]phenyl}ethynyl)-3-azabicyclo[3.1.0]hexan-3-yl]-2-methoxyethan-1-one], the MIC was 2 µg/mL (≈ 4.48 µM) in experiment [1] (setting [5]), 1 µg/mL (≈ 2.24 µM) in experiment [2] (setting [6]) and 32 µg/mL (≈ 71.7 µM) in experiment [3] (setting [6]). In addition, the IC50 in experiment [4] (setting [7]) is 38 nM.
On to `C[C@H](O)C(=O)N1C[C@@H]2[C@@H](C#Cc3ccc(-c4cc(Cn5ccnc5[C@H](C)O)no4)cc3)[C@@H]2C1` [Compound 77, (2S)-2-hydroxy-1-[(1R,5S,6R)-6-({4-[3-({2-[(1S)-1-hydroxyethyl]-1H-imidazol-1-yl}methyl)-1,2-oxazol-5-yl]phenyl}ethynyl)-3-azabicyclo[3.1.0]hexan-3-yl]propan-1-one], for which the minimal inhibitory concentration (MIC) in experiment [1] (setting [5]) was determined as 2 µg/mL (≈ 4.48 µM); in experiment [2] (setting [6]), 2 µg/mL (≈ 4.48 µM); in experiment [3] (setting [6]), 32 µg/mL (≈ 71.7 µM). Further, in experiment [4] (setting [7]), the IC50 is 67.4 nM.
As for `COC(=O)N1C[C@@H]2[C@@H](C#Cc3ccc(-c4cc(Cn5ccnc5[C@H](C)O)no4)cc3)[C@@H]2C1` [Compound 78, Methyl (1R,5S,6s)-6-({4-[3-({2-[(1S)-1-hydroxyethyl]-1H-imidazol-1-yl}methyl)-1,2-oxazol-5-yl]phenyl}ethynyl)-3-azabicyclo[3.1.0]hexane-3-carboxylate], the MIC in experiment [1] (ATCC13883, 18 h) amounted to 0.5 µg/mL (≈ 1.16 µM); in experiment [2] it was 0.5 µg/mL (≈ 1.16 µM); in experiment [3] it was 32 µg/mL (≈ 74 µM). For the same compound, in experiment [4], inhibition was half-maximal at 13.8 nM (IC50).
Turning to `C[C@H](O)c1nccn1Cc1cc(-c2ccc(C#C[C@@H]3[C@H]4CN(C(=O)C(O)CO)C[C@@H]34)cc2)on1` (stereo partly drawn) [Compound 79, 2,3-dihydroxy-1-[(1R,5S,6s)-6-({4-[3-({2-[(1S)-1-hydroxyethyl]-1H-imidazol-1-yl}methyl)-1,2-oxazol-5-yl]phenyl}ethynyl)-3-azabicyclo[3.1.0]hexan-3-yl]propan-1-one], the MIC in experiment [1] (setting [5]) was found to be 4 µg/mL (≈ 8.65 µM); in experiment [2] (setting [6]), 2 µg/mL (≈ 4.32 µM); in experiment [3] (setting [6]), 32 µg/mL (≈ 69.2 µM). Besides, in experiment [4] (setting [7]), the IC50 is 92.7 nM.
Regarding `C[C@H](O)c1nccn1Cc1cc(-c2ccc(C#C[C@@H]3[C@H]4CN(S(N)(=O)=O)C[C@@H]34)cc2)on1.Cl` [Compound 81, (1R,5S,6s)-6-((4-[3-({2-[(1S)-1-Hydroxyethyl]-1H-imidazol-1-yl}methyl)-1,2-oxazol-5-yl]phenyl}ethynyl)-3-azabicyclo[3.1.0]hexane-3-sulfonamide hydrochloride], the MIC was 1 µg/mL in experiment [1] (setting [5]), 0.5 µg/mL in experiment [2] (setting [6]) and greater than 4 µg/mL in experiment [3] (setting [6]). For the same compound, the IC50 in experiment [4] (setting [7]) came out at 69.6 nM.
For `C[C@H](O)c1nccn1[C@H](CN)c1cc(-c2ccc(C#CC3CC3)cc2)no1` [Compound 82, (1S)-1-{1-[(1R)-2-Amino-1-{3-[4-(cyclopropylethynyl)phenyl]-1,2-oxazol-5-yl}ethyl]-1H-imidazol-2-yl}ethan-1-ol], the MIC in experiment [1] (setting [5]) was found to be 0.25 µg/mL (≈ 0.69 µM); in experiment [2] (setting [6]), 0.12 µg/mL (≈ 0.331 µM); in experiment [3] (setting [6]) it was 16 µg/mL (≈ 44.1 µM). For the same compound, in experiment [4] (setting [7]), the IC50 amounted to 82 nM.
As for `C[C@H](O)c1nccn1Cc1cc(-c2ccc(C#C[C@@H]3[C@H]4CNC[C@@H]34)cc2)no1` [Compound 83, (1S)-1-(1-{[3-(4-{[(1R,5S,6s)-3-azabicyclo[3.1.0]hexan-6-yl]ethynyl}phenyl)-1,2-oxazol-5-yl]methyl}-1H-imidazol-2-yl)ethan-1-ol], the MIC in experiment [1] (setting [5]), in experiment [2] (setting [6]) and in experiment [3] (setting [6]) was 8 µg/mL (≈ 21.4 µM) in each case. For the same compound, in experiment [4] (setting [7]), the IC50 worked out at 136 nM.
As to `COCCN1C[C@@H]2[C@@H](C#Cc3ccc(-c4cc(Cn5ccnc5[C@H](C)O)on4)cc3)[C@@H]2C1` [Compound 84, (1S)-1-(1-{[3-(4-{[(1R,5S,6s)-3-(2-methoxyethyl)-3-azabicyclo[3.1.0]hexan-6-yl]ethynyl}phenyl)-1,2-oxazol-5-yl]methyl}-1H-imidazol-2-yl)ethan-1-ol], the MIC in experiment [1] (setting [5]) came to 0.5 µg/mL (≈ 1.16 µM); in experiment [2] (setting [6]) it was 0.5 µg/mL (≈ 1.16 µM); in experiment [3] (setting [6]), 16 µg/mL (≈ 37 µM). For the same compound, the concentration for half-maximal inhibition (IC50) in experiment [4] (setting [7]) came to 102 nM.
Consider `COCC(O)CN1C[C@@H]2[C@@H](C#Cc3ccc(-c4cc(Cn5ccnc5[C@H](C)O)on4)cc3)[C@@H]2C1` (stereo partly drawn) [Compound 85, 1-[(1R,5S,6s)-6-({4-[5-({2-[(1S)-1-hydroxyethyl]-1H-imidazol-1-yl}methyl)-1,2-oxazol-3-yl]phenyl}ethynyl)-3-azabicyclo[3.1.0]hexan-3-yl]-3-methoxypropan-2-ol], for which the MIC was 0.5 µg/mL (≈ 1.08 µM) in experiment [1] (setting [5]), 0.5 µg/mL (≈ 1.08 µM) in experiment [2] (setting [6]) and 8 µg/mL (≈ 17.3 µM) in experiment [3] (setting [6]). Also, the IC50 in experiment [4] (setting [7]) was found to be 96.8 nM.

These data come from patent US20220002279A1, “NOVEL IMIDAZOLE DERIVATIVE” (priority 2018, published 2022).
